Data reported in ChEMBL document CHEMBL1154382, “Preliminary SAR analysis of novel antiproliferative N(6),5'-bis-ureidoadenosine derivatives” (2009).
Activity calls are given as the source filed them.

What was measured:
Assay type in all cases: functional
UACC-257 = assay: Antiproliferative activity against human UACC257 cells at 10 uM assessed as cell growth inhibition relative to control
SK-MEL-28 = assay: Antiproliferative activity against human SK-MEL-28 cells at 10 uM assessed as cell growth inhibition relative to control
HCC 2998 = assay: Antiproliferative activity against human HCC2998 cells at 10 uM assessed as cell growth inhibition relative to control
UO-31 = assay: Antiproliferative activity against human UO31 cells at 10 uM assessed as cell growth inhibition relative to control
BT-549 = assay: Antiproliferative activity against human BT549 cells at 10 uM assessed as cell growth inhibition relative to control
RPMI8266 = assay: Antiproliferative activity against human […] cells at 10 uM assessed as cell growth inhibition relative to control
Hs-578T = assay: Antiproliferative activity against human Hs 578T cells at 10 uM assessed as cell growth inhibition relative to control
U-251 = assay: Antiproliferative activity against human U251 cells at 10 uM assessed as cell growth inhibition relative to control
MDA-MB-231 = assay: Antiproliferative activity against human MDA-MB-231 cells at 10 uM assessed as cell growth inhibition relative to control
OVCAR-5 = assay: Antiproliferative activity against human OVCAR5 cells at 10 uM assessed as cell growth inhibition relative to control
TK-10 = assay: Antiproliferative activity against human TK10 cells at 10 uM assessed as cell growth inhibition relative to control
KM12 = assay: Antiproliferative activity against human KM12 cells at 10 uM assessed as cell growth inhibition relative to control
MCF7 = assay: Antiproliferative activity against human MCF7 cells at 10 uM assessed as cell growth inhibition relative to control
SK-OV-3 = assay: Antiproliferative activity against human SKOV3 cells at 10 uM assessed as cell growth inhibition relative to control
HCT-116 = assay: Antiproliferative activity against human HCT116 cells at 10 uM assessed as cell growth inhibition relative to control
ACHN = assay: Antiproliferative activity against human ACHN cells at 10 uM assessed as cell growth inhibition relative to control
SNB-19 = assay: Antiproliferative activity against human SNB19 cells at 10 uM assessed as cell growth inhibition relative to control
K562 = assay: Antiproliferative activity against human K562 cells at 10 uM assessed as cell growth inhibition relative to control
A498 = assay: Antiproliferative activity against human A498 cells at 10 uM assessed as cell growth inhibition relative to control
HOP-92 = assay: Antiproliferative activity against human HOP92 cells at 10 uM assessed as cell growth inhibition relative to control
Malme-3M = assay: Antiproliferative activity against human MALME-3M cells at 10 uM assessed as cell growth inhibition relative to control
COLO 205 = assay: Antiproliferative activity against human COLO205 cells at 10 uM assessed as cell growth inhibition relative to control
IGROV-1 = assay: Antiproliferative activity against human IGROV1 cells at 10 uM assessed as cell growth inhibition relative to control
OVCAR-8 = assay: Antiproliferative activity against human OVCAR8 cells at 10 uM assessed as cell growth inhibition relative to control
SW-620 = assay: Antiproliferative activity against human SW620 cells at 10 uM assessed as cell growth inhibition relative to control
NCI-H322M = assay: Antiproliferative activity against human NCI-H322M cells at 10 uM assessed as cell growth inhibition relative to control
OVCAR-4 = assay: Antiproliferative activity against human OVCAR4 cells at 10 uM assessed as cell growth inhibition relative to control
NCI-H23 = assay: Antiproliferative activity against human NCI-H23 cells at 10 uM assessed as cell growth inhibition relative to control
NCI-H460 = assay: Antiproliferative activity against human NCI-H460 cells at 10 uM assessed as cell growth inhibition relative to control
DU-145 = assay: Antiproliferative activity against human DU145 cells at 10 uM assessed as cell growth inhibition relative to control
UACC-62 = assay: Antiproliferative activity against human UACC62 cells at 10 uM assessed as cell growth inhibition relative to control
SF-268 = assay: Antiproliferative activity against human SF268 cells at 10 uM assessed as cell growth inhibition relative to control
HL-60(TB) = assay: Antiproliferative activity against human HL-60(TB) cells at 10 uM assessed as cell growth inhibition relative to control
T47D = assay: Antiproliferative activity against human T47D cells at 10 uM assessed as cell growth inhibition relative to control
HOP-62 = assay: Antiproliferative activity against human HOP62 cells at 10 uM assessed as cell growth inhibition relative to control
A549 = assay: Antiproliferative activity against human A549 cells at 10 uM assessed as cell growth inhibition relative to control
SK-MEL-5 = assay: Antiproliferative activity against human SK-MEL-5 cells at 10 uM assessed as cell growth inhibition relative to control
MDA-MB-468 = assay: Antiproliferative activity against human MDA-MB-468 cells at 10 uM assessed as cell growth inhibition relative to control
SK-MEL-2 = assay: Antiproliferative activity against human SK-MEL-2 cells at 10 uM assessed as cell growth inhibition relative to control
SF-539 = assay: Antiproliferative activity against human SF539 cells at 10 uM assessed as cell growth inhibition relative to control
SF-295 = assay: Antiproliferative activity against human SF295 cells at 10 uM assessed as cell growth inhibition relative to control
HCT-15 = assay: Antiproliferative activity against human HCT15 cells at 10 uM assessed as cell growth inhibition relative to control
NCI-H226 = assay: Antiproliferative activity against human NCI-H226 cells at 10 uM assessed as cell growth inhibition relative to control
SNB-75 = assay: Antiproliferative activity against human SNB75 cells at 10 uM assessed as cell growth inhibition relative to control
786-0 = assay: Antiproliferative activity against human 786-0 cells at 10 uM assessed as cell growth inhibition relative to control
HT-29 = assay: Antiproliferative activity against human HT-29 cells at 10 uM assessed as cell growth inhibition relative to control
SN12C = assay: Antiproliferative activity against human SN12C cells at 10 uM assessed as cell growth inhibition relative to control
NCI-H522 = assay: Antiproliferative activity against human NCI-H522 cells at 10 uM assessed as cell growth inhibition relative to control
LOX IMVI = assay: Antiproliferative activity against human LOXIMVI cells at 10 uM assessed as cell growth inhibition relative to control
CAKI-1 = assay: Antiproliferative activity against human Caki1 cells at 10 uM assessed as cell growth inhibition relative to control
CCRF-CEM = assay: Antiproliferative activity against human CCRF-CEM cells at 10 uM assessed as cell growth inhibition relative to control
M14 = assay: Antiproliferative activity against human M14 cells at 10 uM assessed as cell growth inhibition relative to control
MOLT-4 = assay: Antiproliferative activity against human MOLT4 cells at 10 uM assessed as cell growth inhibition relative to control
OVCAR-3 = assay: Antiproliferative activity against human OVCAR-3 cells at 10 uM assessed as cell growth inhibition relative to control
EKVX = assay: Antiproliferative activity against human EKVX cells at 10 uM assessed as cell growth inhibition relative to control
PC-3 = assay: Antiproliferative activity against human PC3 cells at 10 uM assessed as cell growth inhibition relative to control
RXF 393 = assay: Antiproliferative activity against human RXF393 cells at 10 uM assessed as cell growth inhibition relative to control

Measured: growth inhibition (GI)

CNC(=O)NC[C@H]1O[C@@H](n2cnc3c(NC(=O)Nc4ccccc4)ncnc32)[C@@H]2OC(C)(C)O[C@@H]21
inactive: UACC-257 | SK-MEL-28 | HCC 2998 | UO-31 | BT-549 | RPMI8266 | Hs-578T | U-251 | MDA-MB-231 | OVCAR-5 | TK-10 | KM12 | MCF7 | SK-OV-3 | HCT-116 | ACHN | SNB-19 | K562 | A498 | HOP-92 | Malme-3M | COLO 205 | IGROV-1 | OVCAR-8 | SW-620 | NCI-H322M | OVCAR-4 | NCI-H23 | NCI-H460 | DU-145 | UACC-62 | SF-268 | HL-60(TB) | T47D | HOP-62 | A549 | SK-MEL-5 | MDA-MB-468 | SK-MEL-2 | SF-539 | SF-295 | HCT-15 | NCI-H226 | SNB-75 | 786-0 | HT-29 | SN12C | NCI-H522 | LOX IMVI | CAKI-1 | CCRF-CEM | M14 | MOLT-4 | OVCAR-3 | EKVX | PC-3 | RXF 393

[N-]=[N+]=NC[C@H]1O[C@@H](n2cnc3c(NC(=O)Nc4ccccc4)ncnc32)[C@@H]2OC(=O)C[C@@H]21
inactive: UACC-257 | SK-MEL-28 | HCC 2998 | UO-31 | BT-549 | RPMI8266 | Hs-578T | U-251 | MDA-MB-231 | OVCAR-5 | TK-10 | KM12 | MCF7 | SK-OV-3 | HCT-116 | ACHN | SNB-19 | K562 | A498 | HOP-92 | Malme-3M | COLO 205 | IGROV-1 | OVCAR-8 | SW-620 | NCI-H322M | OVCAR-4 | NCI-H23 | NCI-H460 | DU-145 | UACC-62 | SF-268 | HL-60(TB) | T47D | HOP-62 | A549 | SK-MEL-5 | MDA-MB-468 | SK-MEL-2 | SF-539 | SF-295 | HCT-15 | NCI-H226 | SNB-75 | 786-0 | HT-29 | SN12C | NCI-H522 | LOX IMVI | CAKI-1 | CCRF-CEM | M14 | MOLT-4 | OVCAR-3 | EKVX | PC-3 | RXF 393
